Test results: US12122736B2, “Salty taste-enhancing agent and manufacturing method therefor, and salty taste-enhancing method” (NISSIN FOODS HOLDINGS CO., LTD., priority 2012, dated 2024)

Legend:
[1] = Sensory evaluation of salty taste-enhancing action in salt aqueous solution (Example 1); conditions: 0.150 wt % evaluation sample and 0.700 wt % sodium chloride in distilled water; compared with 0.700-0.840 wt % saline
Procedure: The salty taste-enhancing action may be evaluated by a sensory test.
Each evaluation sample and sodium chloride (salt) were dissolved in distilled water to prepare an aqueous solution containing 0.150 wt % of the evaluation sample and 0.700 wt % of sodium chloride, which was used as an evaluation solution. In addition, solutions containing 0.700 wt %, 0.735 wt %, 0.770 wt %, 0.805 wt %, and 0.840% of sodium chloride were used as comparative objects.

[2] = Sensory evaluation of relationship between addition concentration and salty taste-enhancing action (Example 2); conditions: for Salty taste-enhancing effect: 0.700 wt % sodium chloride
Procedure: 3-Guanidino-1-propanol hydrochloride obtained in Synthesis Example 2 was evaluated for its relationship between an addition concentration and a salty taste-enhancing action.
3-Guanidino-1-propanol hydrochloride and sodium chloride (salt) were dissolved in distilled water to prepare an aqueous solution containing 1.5 ppm (0.00015 wt %), 15 ppm (0.0015 wt %), 150 ppm (0.015 wt %), or 1,500 ppm (0.15 wt %) of 3-guanidino-1-propanol hydrochloride and 0.700 wt % of sodium chloride, which was used as an evaluation solution. In addition, solutions containing 0.700 wt %, 0.735 wt %, 0.770 wt %, 0.805 wt %, and 0.840 wt % of sodium chloride were used as comparative objects.

Question: For `N=C(N)NCCCCCC(=O)O` [6-Guanidinocaproic acid], which Salty taste-enhancing effect [1] is on record?
Answer: Its Salty taste-enhancing effect is “+ (exhibiting a salty taste equal to or stronger than that of 0.735 wt % saline (exhibiting a salty taste-enhancing effect of 5% or more))”.

Question: With `N=C(N)NCCCO` [Example 14] as the compound, how does the Salty taste-enhancing effect [1] read?
Answer: Its Salty taste-enhancing effect is “++++ (exhibiting a salty taste equal to or stronger than that of 0.840 wt % saline (exhibiting a salty taste-enhancing effect of 20% or more))”.

Question: For `Cl.N=C(N)N` [Guanidine hydrochloride], which Salty taste-enhancing effect [1] is on record?
Answer: The Salty taste-enhancing effect was “+++ (exhibiting a salty taste equal to or stronger than that of 0.805 wt % saline (exhibiting a salty taste-enhancing effect of 15% or more))”.

Question: With `Cl.N=C(N)NCCCO` [Synthesis Example 2, 3-Guanidino-1-propanol hydrochloride] as the compound, how does the “addition concentration at which a salty taste-enhancing action was exhibited” value ([2]; 0.700 wt % sodium chloride aqueous solution) read?
Answer: The value was ≥ 15 ppm.

Question: What about the Salty taste-enhancing effect ([2]; addition concentration 1.5 ppm (0.00015%)) of the same compound?
Answer: Its Salty taste-enhancing effect is “± (exhibiting a salty taste weaker than that of 0.735 wt % saline (exhibiting a salty taste-enhancing effect of less than 5%))”.

Question: What about the Salty taste-enhancing effect ([2]; addition concentration 15 ppm (0.0015%)) of the same compound?
Answer: Its Salty taste-enhancing effect is “+ (exhibiting a salty taste equal to or stronger than that of 0.735 wt % saline (exhibiting a salty taste-enhancing effect of 5% or more))”.

Question: What about the Salty taste-enhancing effect ([2]; addition concentration 150 ppm (0.015%)) of the same compound?
Answer: Its Salty taste-enhancing effect is “++ (exhibiting a salty taste equal to or stronger than that of 0.770 wt % saline (exhibiting a salty taste-enhancing effect of 10% or more))”.

Question: And the Salty taste-enhancing effect ([2]; addition concentration 1,500 ppm (0.15%))?
Answer: The Salty taste-enhancing effect was “++++ (exhibiting a salty taste equal to or stronger than that of 0.840 wt % saline (exhibiting a salty taste-enhancing effect of 20% or more))”.

Question: Which Salty taste-enhancing effect [1] does the source give for `N=C(N)NCCC(=O)O` [β-Guanidinopropanoic acid] here?
Answer: The Salty taste-enhancing effect was “++ (exhibiting a salty taste equal to or stronger than that of 0.770 wt % saline (exhibiting a salty taste-enhancing effect of 10% or more))”.
